In brackets after ≈: the same amount, converted by molar mass. Several values for one entry are separate records, joined by “and”; a condition that tells them apart may be missing. Equal entries are not always repeated. Structures can show the parent of a compound that is named as a salt. Bounds are passed on as bounds.

Series [1] is described as follows: Equilibration of A-B mixtures of the hydrochloride salt in solvents. In kind it is physicochemical.
Series [2] can be described thus: Solubility by gravimetric techniques at different temperatures, residue by XRPD.
Series [3] in a line: Stability studies on storage. The format is physicochemical. The settings on record: storage at various relative humidities.
Series [4] can be described thus: Intrinsic dissolution rate (rotating disk). The format is physicochemical. The settings on record: for Intrinsic dissolution rate: 37° C., 200 rpm. As to the method:
Intrinsic Dissolution Rate (IDR): Dissolution rate measurements were performed at 37° C. using the rotating disk method (VanKell Instrument). A single rotation speed of 200 rpm was used. For IDR in 0.1N HCl, an 800 mL volume, and for IDR in water, a 200 mL volume were used. The solution was continuously pumped through a UV measuring cell and recycled to the dissolution vessel.
The measurements were carried out on a VanKel instrument using a Cary 100 photometer.

Series [5] in a line: physchem. To be noted: thermodynamic from solid.
Series [6] is described as follows: Form conversion on exposure to solvent vapor, air, moisture or room conditions. The format is physicochemical. To be noted: in the presence of methanol vapor.
Series [7] can be described thus: Equilibration of hydrochloride forms A, B and C with solvents, XRPD. In kind it is physicochemical. From the text: Then the solutions were filtered and the solid part investigated by XRPD.
A short description of series [8]: Thermal properties by TGA and DSC. In kind it is physicochemical.
Excerpt: Form A's basic thermal properties were studied by thermogravimetric analysis (TGA) and differential scanning calorimetry (DSC) and are as follows:
Series [9] is described as follows: Equilibration of free base forms with solvents, XRPD. The format is physicochemical. From the text:
The solid part was investigated by XRPD.

The nature of series [10]: pH of 1% solution or suspension in water. To be noted: 1% in water; listed as Free base form B. In kind it is physicochemical.
Series [11] in a line: Hygroscopicity (water uptake). The settings on record: 25° C. up to 80% r.h. The format is physicochemical.
Series [12] can be described thus: physchem. To be noted: aqueous buffer solution, pH 2.8, aqueous buffer, thermodynamic from solid.
The mark [13] stands for this setting: methanol/water (95/5) v/v, 20 °C, organic solvent or mixture.
The mark [14] stands for this setting: methanol/water (95/5) v/v, 45 °C, organic solvent or mixture.
The mark [15] stands for this setting: methanol/water (95/5) v/v, -10 °C, organic solvent or mixture.
Where [16] appears, read: methanol/water (99.5/0.5) v/v, 20 °C, organic solvent or mixture.
Where [17] appears, read: methanol/water (99.5/0.5) v/v, 45 °C, organic solvent or mixture.

On to `Cc1cn(-c2cc(NC(=O)c3ccc(C)c(Nc4nccc(-c5cccnc5)n4)c3)cc(C(F)(F)F)c2)cn1`, for which the “Form after equilibration of A-B mixture” value in [1] (Methanol 0.25% water, 24 hours 40° C., ? = extra peak (unclear whether new form or free base)) was “B/?”; in series [1] (Methanol 10% water, significant enrichment in A after 12 hours), “A/B”.
Regarding `Cc1cn(-c2cc(NC(=O)c3ccc(C)c(Nc4nccc(-c5cccnc5)n4)c3)cc(C(F)(F)F)c2)cn1` [Form A of the hydrochloride salt], the Solubility is 0.45 mg/mL in series [2] (0.0001N HCl, 25° C., after 24 hours); 0.79 mg/mL in [2] (0.001N HCl, 50° C., after 24 hours); 0.43 mg/mL in series [2] (0.01N HCl, 25° C., after 24 hours); 2.46 mg/mL in series [2] (0.1N HCl, 50° C., after 24 hours); 28.18 mg/mL in series [2] (Methanol/Water (95/5) v/v, 20° C., 1 hour); 4.74 mg/mL in [2] (Methanol/Water (95/5) v/v, −10° C., 24 hours). Besides, the Solubility in [2] (Methanol/Water (99.5/0.5) v/v, −10° C., 10 minutes) amounted to 24.01 mg/mL; in [2] (Methanol/Water (99.5/0.5) v/v, −10° C., 1 hour), 26.37 mg/mL; in series [2] (Water, 25° C., after 24 hours), 0.35 mg/mL. Also, the “XRPD (form of the solid)” value in series [2] (Methanol, 50° C., after 24 hours) was “C + B”; in [2] (Methanol/Water (95/5) v/v, 45° C., 1 hour) it was “A + B + C”; in series [2] (Methanol/Water (99.5/0.5) v/v, 20° C., 10 minutes), “A + B”; in [2] (Methanol/Water (99.5/0.5) v/v, 20° C., 1 hour), “A + B”; in [2] (Methanol/Water (99.5/0.5) v/v, 45° C., 10 minutes), “A + B”; in series [2] (Methanol/Water (99.5/0.5) v/v, 45° C., 1 hour) it was “C + B”. Moreover, the “XRPD (form of the solid)” value in series [2] (Methanol/Water (99.5/0.5) v/v, 45° C., 24 hours) is on record as “C + B”. In addition, the “form transition after storage” value in [3] was “No form transitions were observed”. The “Intrinsic Dissolution Rate value” in series [4] (dissolution medium HCl 0.0001 N) was 0.0003 mg/min/cm^2; in [4] (dissolution medium HCl 0.001 N), 0.0089 mg/min/cm^2; in series [4] (dissolution medium HCl 0.01 N) it was 0.0178 mg/min/cm^2; in series [4] (dissolution medium HCl 0.1 N), 0.6778 mg/min/cm^2 and 1.2467 mg/min/cm^2; in [4] (dissolution medium Water), 0.0004 mg/min/cm^2; in [4] (dissolution medium pH 2 (citrate buffer)) it was 0.0076 mg/min/cm^2. The solubility at 24 h in the series “physchem [5]” (0.001N HCl, 25 °C, aqueous buffer) is 0.92 mg/mL; in “physchem [5]” (0.01N HCl, 50 °C, simulated gastric fluid), 0.85 mg/mL; in the series “physchem [5]” (0.1N HCl, 25 °C, simulated gastric fluid), 1.32 mg/mL; in the series “physchem [5]” (methanol, 25 °C, organic solvent or mixture) it was 13.8 mg/mL; in “physchem [5]” (methanol, 50 °C, organic solvent or mixture), 52.5 mg/mL; in “physchem [5]” (setting [13]), 13.1 mg/mL. The solubility at 24 h in “physchem [5]” (setting [16]) was found to be 12.2 mg/mL; in the series “physchem [5]” (setting [17]) it was 41.9 mg/mL; in the series “physchem [5]” (methanol/water (99.5/0.5) v/v, -10 °C, organic solvent or mixture), 4.96 mg/mL; in the series “physchem [5]” (water, 50 °C), 1.03 mg/mL. Also, the solubility at 10 min was determined as 25.7 mg/mL in “physchem [5]” (setting [13]); 46.1 mg/mL in “physchem [5]” (setting [14]); 12.3 mg/mL in the series “physchem [5]” (setting [15]); 33.7 mg/mL in “physchem [5]” (setting [16]); 52.2 mg/mL in “physchem [5]” (setting [17]). The solubility at 1 h in the series “physchem [5]” (setting [14]) stood at 61.1 mg/mL; in “physchem [5]” (setting [15]) it was 14.4 mg/mL; in “physchem [5]” (setting [17]), 62.5 mg/mL. In addition, in series [6], the form conversion entry is reported as “converts to form B”. Moreover, the “form transition on equilibration” value in [7] (methanol, 50° C., 1 day) is “transitioned to a mixture of forms B and C”; in [7] (methanol, one day, 25° C.), “transitioned to form B”; in series [7] (methanol/HCl 0.1N, 50° C., 1 day), “transitioned to form C”; in series [7] (methanol/HCl 0.1N, one day, 25° C.) it was “transitioned to form B with a small amount of form C”; in series [7] (methanol/water (99:1), 50° C., 1 day), “transitioned to form C”; in [7] (methanol/water (99:1), one day, 25° C.), “transitioned to form C with a small amount of form B”. The “form transition on equilibration” value in series [7] (methanol/water (99.3:0.7), 50° C., 1 day) is “transitioned to form C”; in series [7] (methanol/water (99.3:0.7), one day, 25° C.), “transitioned to form B with a small amount of form C”.
With `Cc1cn(-c2cc(NC(=O)c3ccc(C)c(Nc4nccc(-c5cccnc5)n4)c3)cc(C(F)(F)F)c2)cn1` [Form B of the free base], the Decomposition temperature in series [8] is greater than 300 °C. Moreover, the Intrinsic dissolution rate in [4] (Water, listed as Free base form B) is given as 0.0013 mg min^−1cm^−2; in series [4] (pH 1 (0.1 N HCl)), 0.17 mg min^−1cm^−2. In addition, the “form transition on equilibration” value in [9] (seven solvents (methanol, ethanol, 2-propanol, ethyl acetate, acetone, tetrahydrofuran, acetonitrile), at least 48 hours, room temperature) is “No form transition occurred”; in [9] (thirteen solvents, one day, 25° C.), “No form transitions occurred with the exception of one trial of form B in water”. For the same compound, the “pH of 1% solution or suspension in water” value in [10] turned out to be 7.99. Besides, the hygroscopicity entry in [11] was “not hygroscopic”. In series [11], the maximum water uptake result is given as “less than 0.2%”. In addition, the Solubility in the series “physchem [12]” was found to be 0.0028 mg/mL (≈ 5.29 µM).
For `Cc1cn(-c2cc(NC(=O)c3ccc(C)c(Nc4nccc(-c5cccnc5)n4)c3)cc(C(F)(F)F)c2)cn1` [form A/form B (1:1)], in series [9] (seven solvents (ethanol absolute, methanol, tetrahydrofuran, water, tetrahydrofuran/water, ethanol/water, methanol/water 1:1), one day, 25° C.), the “form transition on equilibration” value was “No form transitions occurred”.

The record behind these values is patent publication US8829015B2 (Novartis AG, priority 2005, dated 2014).
